Results reported in patent US10227357B2, “Compounds and methods for kinase modulation, and indications therefor” (Plexxikon Inc., priority 2012, dated 2019).

The molecules below were run against T1, c-kit mutant D816V (Homo sapiens, UniProt P10721, D816V/DEL694-753) (assay: c-Kit mutant D816V biochemical assay, AlphaScreen). Settings: c-kit D816V biochemical inhibitory activity; read-out: Biochemical activity (IC50 μM) Kit D816V.
T1 construct: residues 551-934, kinase insertion domain residues 694-753 deleted; 6x-histidine (N); made in house; host or cells: E. coli Arctic Express (DE3) RIL (Stratagene)
T1 sequence (P10721 with tags, fused parts or gaps DEL694-753/D816V): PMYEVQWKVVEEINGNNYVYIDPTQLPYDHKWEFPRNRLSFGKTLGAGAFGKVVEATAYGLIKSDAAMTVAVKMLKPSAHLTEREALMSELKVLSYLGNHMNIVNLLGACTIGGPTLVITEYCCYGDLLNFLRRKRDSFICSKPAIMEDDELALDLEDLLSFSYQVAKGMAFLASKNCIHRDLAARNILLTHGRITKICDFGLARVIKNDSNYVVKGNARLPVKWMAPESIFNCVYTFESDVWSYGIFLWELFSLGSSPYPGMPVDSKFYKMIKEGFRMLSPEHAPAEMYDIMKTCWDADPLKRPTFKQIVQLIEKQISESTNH
Description: Compounds to be tested were dissolved in DMSO to a concentration of 20 mM. These were diluted 30 μl into 120 μl of DMSO (4 mM) and 1 μl was added to an assay plate. These were then serially diluted 1:3 (50 μl to 100 μl DMSO) for a total of 8 points. Plates were prepared such that each kinase reaction is 20 μl in 1× kinase buffer (25 mM HEPES, pH 7.2, 8 mM MgCl2, 2 mM MnCl2, 50 mM NaCl, 0.01% Brij, 1 mM DTT, 0.01% BSA), 5% DMSO and 10 μM ATP. […] After incubation of the kinase reaction for 30 minutes at room temperature, 5 μl of donor beads (Streptavidin coated beads (Perkin Elmer Life Science) final concentration 7.5 μg/ml) in stop buffer (25 mM Hepes pH 7.5, 100 mM EDTA, 0.01% BSA) was added, the sample was mixed and incubated for 20 minutes at room temperature before adding 5 μl of acceptor beads (PY20 coated beads (Perkin Elmer Life Science) final concentration 7.5 μg/ml) in stop buffer. The samples were incubated for 60 minutes at room temperature and the signal per well was read on EnVision reader. […] The signal vs. compound concentration was used to determine the IC50.
Cells were grown in Terrific Broth (TB) media to an OD600 of 0.6 at 37° C. at which temperature was reduced to 10° C., protein was induced with 1.0 mM IPTG for 18 hours and harvested by centrifugation at 8000×g for 20 minutes. Cells were re-suspended in 0.1M KPO4 pH 8.0, 250 mM NaCl, 10% Glycerol, 0.75% NP-40, 25 mM Imidazole, 5 mM BME with 0.2 mg/ml Lysosyme, 2.0 mM PMSF, 25 μg/ml DNAse I, incubated in ice for 30 minutes and lysed with a cell disruptor (MicroFluidics). The lysate was clarified by centrifugation at 20,000×g for 2 hours. The protein was captured with Talon resin (Clontech). Contaminating proteins were washed off with 25 mM Tris-HCl pH 8.3, 250 mM NaCl, 15% Glycerol, 1% Triton X-100, and protein eluted using 100 mM EDTA. The protein was further purified using Gel Filtration column 26/600 Superdex 200 (GE) in 50 mM Tris-HCl, pH 8.0, 250 mM NaCl, 15% Glycerol, 5 mM BME. The protein was aliquoted and flash-frozen in liquid Nitrogen.

Question: For `CC(C)(C)OC(=O)N1CCN(c2ncnc3[nH]c(C(=O)Nc4ccccc4)cc23)CC1` [P-0211, tert-butyl 4-[6-(phenylcarbamoyl)-7H-pyrrolo[2,3-d]pyrimidin-4-yl]piperazine-1-carboxylate], which IC50 is on record?
Answer: The IC50 was 0.0001 to 1 µM.

Question: `CS(=O)(=O)Nc1ccccc1-c1ncnc2[nH]c(-c3ccc(F)cc3)cc12` [P-0375, N-[2-[6-(4-fluorophenyl)-7H-pyrrolo[2,3-d]pyrimidin-4-yl]phenyl]methanesulfonamide] was tested. Which IC50 did it give?
Answer: The IC50 was 10 to 200 µM.

Question: How did the IC50 turn out when `Cc1ccc(S(=O)(=O)Nc2ccc(-c3ncnc4cc(-c5ccc(F)cc5)sc34)cc2)cc1` [P-0636, N-[4-[6-(4-fluorophenyl)thieno[3,2-d]pyrimidin-4-yl]phenyl]-4-methyl-benzenesulfonamide] was run?
Answer: The IC50 was 0.0001 to 1 µM.

Question: `Cc1ccc([C@H](C)NC(=O)N2CCN(c3ncnc4[nH]c(-c5ccc(F)cc5)cc34)CC2)cc1` [P-0713, 4-[6-(4-fluorophenyl)-7H-pyrrolo[2,3-d]pyrimidin-4-yl]-N-[(1S)-1-(p-tolyl)ethyl]piperazine-1-carboxamide] was tested. Which IC50 did it give?
Answer: The IC50 was 0.0001 to 1 µM.

Question: For `COc1cccc(NC(=O)N2CCN(c3ncnc4[nH]c(-c5ccccc5)cc34)CC2)c1` [P-0238, N-(3-methoxyphenyl)-4-(6-phenyl-7H-pyrrolo[2,3-d]pyrimidin-4-yl)piperazine-1-carboxamide], which IC50 is on record?
Answer: The IC50 was 10 to 200 µM.

Question: How did the IC50 turn out when `Cc1cc2c(N3CCC(NS(=O)(=O)c4ccc(C(C)C)cc4)CC3)ncnc2[nH]1` [P-0657, 4-isopropyl-N-[1-(6-methyl-7H-pyrrolo[2,3-d]pyrimidin-4-yl)-4-piperidyl]benzenesulfonamide] was run?
Answer: Its IC50 is 10 to 200 µM.

Question: `c1nc(-c2cnc(C3CC3)nc2)c2cc(-c3cnc(C4CC4)nc3)[nH]c2n1` [P-0384, 4,6-bis(2-cyclopropylpyrimidin-5-yl)-7H-pyrrolo[2,3-d]pyrimidine] was tested. Which IC50 did it give?
Answer: Its IC50 is 10 to 200 µM.

Question: For `O=C(NC(=O)N1CCN(c2ncnc3[nH]c(-c4ccc(F)cc4)cc23)CC1)c1ccccc1` [P-0143, N-benzoyl-4-[6-(4-fluorophenyl)-7H-pyrrolo[2,3-d]pyrimidin-4-yl]piperazine-1-carboxamide], which IC50 is on record?
Answer: Its IC50 is 1 to 10 µM.

Question: Which IC50 does the source give for `O=C(Nc1ccc(F)cc1)N1CCN(c2ncnc3ccsc23)CC1` [P-0640, N-(4-fluorophenyl)-4-thieno[3,2-d]pyrimidin-4-yl-piperazine-1-carboxamide] here?
Answer: The IC50 was 0.0001 to 1 µM.

Question: `O=C(NCc1ccc(F)cc1)N1CCN(c2ncnc3[nH]cc(C4CC4)c23)CC1` [P-0179, 4-(5-cyclopropyl-7H-pyrrolo[2,3-d]pyrimidin-4-yl)-N-[(4-fluorophenyl)methyl]piperazine-1-carboxamide] was tested. Which IC50 did it give?
Answer: Its IC50 is 1 to 10 µM.

Question: How did the IC50 turn out when `NS(=O)(=O)c1ccc(-c2ncnc3[nH]c(-c4ccc(F)cc4)cc23)c(F)c1` [P-0376, 3-fluoro-4-[6-(4-fluorophenyl)-7H-pyrrolo[2,3-d]pyrimidin-4-yl]benzenesulfonamide] was run?
Answer: Its IC50 is 0.0001 to 1 µM.

Question: `COc1cccc([C@@H](C)NC(=O)N2CCN(c3ncnc4[nH]c(-c5ccc(Cl)cc5)cc34)C[C@H]2C)c1` [P-0025, (2R)-4-[6-(4-chlorophenyl)-7H-pyrrolo[2,3-d]pyrimidin-4-yl]-N-[(1R)-1-(3-methoxyphenyl)ethyl]-2-methyl-piperazine-1-carboxamide] was tested. Which IC50 did it give?
Answer: Its IC50 is 10 to 200 µM.

Question: For `COc1cccc([C@H](C)NC(=O)N2CC3CCC(C2)N3c2ncnc3cc(-c4ccc(F)cc4)sc23)c1` [P-0550, 8-[6-(4-fluorophenyl)thieno[3,2-d]pyrimidin-4-yl]-N-[(1S)-1-(3-methoxyphenyl)ethyl]-3,8-diazabicyclo[3.2.1]octane-3-carboxamide], which IC50 is on record?
Answer: Its IC50 is 1 to 10 µM.

Question: `Cn1cc(-c2cc3c(N4CCC(NS(=O)(=O)c5ccc(N6CCCC6=O)cc5)CC4)ncnc3[nH]2)cn1` [P-0483, N-[1-[6-(1-methylpyrazol-4-yl)-7H-pyrrolo[2,3-d]pyrimidin-4-yl]-4-piperidyl]-4-(2-oxopyrrolidin-1-yl)benzenesulfonamide] was tested. Which IC50 did it give?
Answer: Its IC50 is 0.0001 to 1 µM.

Question: `Cc1ncc(-c2cc3c(N4CCC(NS(=O)(=O)c5ccc(OC(F)(F)F)cc5)CC4)ncnc3[nH]2)s1` [P-0463, N-[1-[6-(2-methylthiazol-5-yl)-7H-pyrrolo[2,3-d]pyrimidin-4-yl]-4-piperidyl]-4-(trifluoromethoxy)benzenesulfonamide] was tested. Which IC50 did it give?
Answer: Its IC50 is 10 to 200 µM.

Question: For `C[C@H](NC(=O)N1CCN(c2ncnc3[nH]c(-c4ccc(C#N)cc4)cc23)C[C@H]1C)c1cccc(F)c1` [P-0693, (2R)-4-[6-(4-cyanophenyl)-7H-pyrrolo[2,3-d]pyrimidin-4-yl]-N-[(1S)-1-(3-fluorophenyl)ethyl]-2-methyl-piperazine-1-carboxamide], which IC50 is on record?
Answer: Its IC50 is 0.0001 to 1 µM.

Question: `Cc1cc2c(-c3ccc(NS(=O)(=O)c4ccc(Cl)c(Cl)c4)cc3)ncnc2[nH]1` [P-0316, 3,4-dichloro-N-[4-(6-methyl-7H-pyrrolo[2,3-d]pyrimidin-4-yl)phenyl]benzenesulfonamide] was tested. Which IC50 did it give?
Answer: Its IC50 is 1 to 10 µM.

Question: For `C[C@@H](NC(=O)N1CCN(c2ncnc3[nH]c(-c4ccc(F)cc4)cc23)CC1)c1ccc(F)cc1` [P-0147, N-[(1R)-1-(4-fluorophenyl)ethyl]-4-[6-(4-fluorophenyl)-7H-pyrrolo[2,3-d]pyrimidin-4-yl]piperazine-1-carboxamide], which IC50 is on record?
Answer: The IC50 was 1 to 10 µM.

Question: With `O=C(NCc1cccc(OC(F)F)c1)N1CCN(c2ncnc3[nH]c(-c4ccc(Cl)cc4)cc23)CC1` [P-0037, 4-[6-(4-chlorophenyl)-7H-pyrrolo[2,3-d]pyrimidin-4-yl]-N-[[3-(difluoromethoxy)phenyl]methyl]piperazine-1-carboxamide] as the molecule, how does the IC50 read?
Answer: The IC50 was 1 to 10 µM.

Question: `Cc1cc2c(-c3ccc(S(=O)(=O)NC4CC4)cc3)ncnc2[nH]1` [P-0380, N-cyclopropyl-4-(6-methyl-7H-pyrrolo[2,3-d]pyrimidin-4-yl)benzenesulfonamide] was tested. Which IC50 did it give?
Answer: The IC50 was 10 to 200 µM.

Question: How did the IC50 turn out when `Cn1cc(-c2cc3c(N4CCC(NS(=O)(=O)c5ccc6c(c5)OCO6)CC4)ncnc3[nH]2)cn1` [P-0456, N-[1-[6-(1-methylpyrazol-4-yl)-7H-pyrrolo[2,3-d]pyrimidin-4-yl]-4-piperidyl]-1,3-benzodioxole-5-sulfonamide] was run?
Answer: Its IC50 is 0.0001 to 1 µM.

Question: `C[C@H](NC(=O)N1CCN(c2ncnc3[nH]c(-c4ccc(C#N)cc4)cc23)C[C@H]1C)c1cccc(OC(F)F)c1` [P-0699, (2R)-4-[6-(4-cyanophenyl)-7H-pyrrolo[2,3-d]pyrimidin-4-yl]-N-[(1S)-1-[3-(difluoromethoxy)phenyl]ethyl]-2-methyl-piperazine-1-carboxamide] was tested. Which IC50 did it give?
Answer: Its IC50 is 0.0001 to 1 µM.

Question: `COc1ncc(F)cc1CNC(=O)N1CCN(c2ncnc3[nH]c(-c4cccnc4)cc23)CC1` [P-0140, N-[(5-fluoro-2-methoxy-3-pyridyl)methyl]-4-[6-(3-pyridyl)-7H-pyrrolo[2,3-d]pyrimidin-4-yl]piperazine-1-carboxamide] was tested. Which IC50 did it give?
Answer: Its IC50 is 1 to 10 µM.

Question: For `O=C(NCc1ccc(Cl)cc1)N1CCN(c2ncnc3[nH]c(Cl)cc23)CC1` [P-0139, N-[(4-chlorophenyl)methyl]-4-(6-chloro-7H-pyrrolo[2,3-d]pyrimidin-4-yl)piperazine-1-carboxamide], which IC50 is on record?
Answer: Its IC50 is 1 to 10 µM.

Question: Which IC50 does the source give for `O=S(=O)(NC1CCN(c2ncnc3[nH]c(-c4ccc(Cl)cc4)cc23)CC1)c1cccc(Cl)c1` [P-0480, 3-chloro-N-[1-[6-(4-chlorophenyl)-7H-pyrrolo[2,3-d]pyrimidin-4-yl]-4-piperidyl]benzenesulfonamide] here?
Answer: Its IC50 is 1 to 10 µM.

Question: How did the IC50 turn out when `O=S(=O)(Nc1ccc(-c2ncnc3[nH]c(-c4ccc(F)cc4)cc23)c(F)c1)N1CCCC1` [P-0400, N-[3-fluoro-4-[6-(4-fluorophenyl)-7H-pyrrolo[2,3-d]pyrimidin-4-yl]phenyl]pyrrolidine-1-sulfonamide] was run?
Answer: The IC50 was 1 to 10 µM.

Question: `CC(C)(C)Oc1ccc(NC(=O)N2CCN(c3ncnc4[nH]c(-c5ccc(Cl)cc5)cc34)CC2)cc1` [P-0017, N-(4-tert-butoxyphenyl)-4-[6-(4-chlorophenyl)-7H-pyrrolo[2,3-d]pyrimidin-4-yl]piperazine-1-carboxamide] was tested. Which IC50 did it give?
Answer: The IC50 was 10 to 200 µM.

Question: `COc1ccc([C@@H](C)NC(=O)N2CCN(c3ncnc4[nH]c(-c5ccc(F)cc5)cc34)CC2)cc1` [P-0145] was tested. Which IC50 did it give?
Answer: Its IC50 is 10 to 200 µM.

Question: With `COc1cccc(CNC(=O)N2CC3CCC(C2)N3c2ncnc3cc(-c4ccc(F)cc4)sc23)c1` [P-0551, 8-[6-(4-fluorophenyl)thieno[3,2-d]pyrimidin-4-yl]-N-[(3-methoxyphenyl)methyl]-3,8-diazabicyclo[3.2.1]octane-3-carboxamide] as the molecule, how does the IC50 read?
Answer: Its IC50 is 1 to 10 µM.

Question: `C[C@H](NC(=O)N1CCN(c2ncnc3[nH]c(-c4ccncc4)cc23)C[C@@H]1C)c1ccc(Cl)cc1` [P-0050, (2S)-N-[(1S)-1-(4-chlorophenyl)ethyl]-2-methyl-4-[6-(4-pyridyl)-7H-pyrrolo[2,3-d]pyrimidin-4-yl]piperazine-1-carboxamide] was tested. Which IC50 did it give?
Answer: Its IC50 is 0.0001 to 1 µM.
